Data reported in PMC6895141, “Antimicrobial Efficacy of Indolicidin Against Multi-Drug Resistant Enteroaggregative Escherichia coli in a Galleria mellonella Model” (Frontiers in Microbiology, 2019).
In brackets after ≈: the same amount, converted by molar mass.

What was measured:
[1] = system: MDR-EAEC isolate KY941936.1 (MDR 1); test: In vitro antibiotic susceptibility testing; type: cell-based, enteroaggregative Escherichia coli; parameters: key to Antibiotic Susceptibility testing / MIC Values, class symbol: S – Sensitive; R- Resistant; settings: for Antibiotic Susceptibility testing: CLSI 2018; for MIC: numeric cells; for MIC Values, class symbol: cells printed as S
Excerpt: (§1) The typical EAEC strains, isolated from the fecal samples of human infants with GenBank accession numbers, KY941936.1 (MDR 1); KY941937.1 (MDR 2); and KY941938.1 (MDR 3), available at Division of Veterinary Public Health, Indian Veterinary Research Institute, Bareilly were re-validated as described earlier ([Vijay et al., 2015]) and tested for antibiotic susceptibility ([Clinical and Laboratory Standards Institute [CLSI], 2018]). E. coli ATCC 25922 used as quality control strain was provided by the Department of Veterinary Public Health, College of Veterinary and Animal Sciences, Pookode, India. These bacterial strains were grown on nutrient agar medium at 37°C.

[2] = system: MDR-EAEC isolate KY941937.1 (MDR 2); test: In vitro antibiotic susceptibility testing; type: cell-based, enteroaggregative Escherichia coli; parameters: key to Antibiotic Susceptibility testing / MIC Values, class symbol: S – Sensitive; R- Resistant; settings: for Antibiotic Susceptibility testing: CLSI 2018; for MIC: numeric cells; for MIC Values, class symbol: cells printed as S
Excerpt: as §1

[3] = system: MDR-EAEC isolate KY941938.1 (MDR 3); test: In vitro antibiotic susceptibility testing; type: cell-based, enteroaggregative Escherichia coli; parameters: key to Antibiotic Susceptibility testing / MIC Values, class symbol: S – Sensitive; R- Resistant; settings: for Antibiotic Susceptibility testing: CLSI 2018; for MIC: numeric cells; for MIC Values, class symbol: cells printed as S
Excerpt: as §1

MDR-EAEC isolates = test: In vitro dose- and time-dependent killing kinetics; type: cell-based, enteroaggregative Escherichia coli; settings: Meropenem 10 μg/ml
Method: The in vitro growth kinetics of MDR-EAEC isolates was evaluated by incubating the log-phase bacterial cultures of each MDR-EAEC isolate (ca. 1 × 10^7 CFU/mL) in CA-MH broth with MIC (1X and 2X) concentrations of Indolicidin, in triplicates (Supplementary File S8). The desired bacterial numbers for each MDR-EAEC isolate and Indolicidin were suspended in CA-MH broth as follows: Group I, 10^7 CFU of MDR-EAEC (50 μL) with 1X MIC Indolicidin (50 μL); Group II, 10^7 CFU of MDR- EAEC (50 μL) with MBC Indolicidin (50 μL); Group III, 10^7 CFU of MDR- EAEC (50 μL) with Meropenem (10 μg/ml; 50 μL); Group IV, 10^7 CFU of MDR- EAEC (50 μL) with CA-MH broth (50 μL) and Group V, 10^7 CFU of MDR- EAEC (50 μL) with 4X MIC Indolicidin (50 μL). To enumerate the antibacterial effect of Indolicidin on MDR-EAEC isolates, an aliquot at 10 μL from all the five groups were drawn at 0, 30, 60, 90, 120, 150, 180 min, 24, 48, and 72 h. These aliquots were serially diluted 10-fold in normal saline solution (prepared using 0.90% of sodium chloride, HiMedia Laboratories); the last three dilutions placed on EMB agar plates containing 100 μg of ampicillin ([Miles et al., 1938]) were counted after 24 h of incubation at 37°C, and the bacterial counts were expressed as log10CFU/mL. […]

MDR-EAEC strains = test: Survival of MDR-EAEC infected G. mellonella larvae; type: in vivo, Galleria mellonella; settings: larvae infected with LD50 dose (10^6 CFU) MDR-EAEC cocktail, treated 3 h pi with MIC dose (10 μL); upto 120 h pi; n = 40 larvae per group
Method: In vivo assays were performed using the final instar of G. mellonella larvae that were stored in wood shavings at 15°C in the dark prior to the experiment ([Morgan et al., 2014]). The larvae were kept in a germ-free environment and were provided with ad libitum food during the course of experiment. Initially, LD50 dose of each MDR-EAEC strains was determined in G. mellonella larvae, and the validated LD50 dose was used further in the in vivo studies to evaluate the antibacterial effect of Indolicidin (Supplementary File S9) by injection with a Hamilton syringe (26 gage) via the last right pro-leg.
(§2) Galleria mellonella larvae (n = 40 larvae per group) were grouped as follows: Group I (infected group), Groups II and III (infection + treatment groups), Group IV (PBS control), and Group V (AMP control). Larvae from groups I to III were infected with cocktail of MDR-EAEC strains (LD50 dose; 10 μL); groups II and III were administered 3 h post-infection (pi) with MIC dose (10 μL) of Indolicidin and Meropenem, respectively; Group IV were injected with sterile PBS whereas, group V was administered with MIC dose of Indolicidin.

G. mellonella larvae = test: Melanization assay in G. mellonella larvae; type: in vivo, Galleria mellonella; settings: infected larvae treated 3 h pi; absorbance 450 nm of hemolymph, 6 to 96 h pi
Method: as §2
For determination of the melanin production, an immune marker, the G. mellonella (n=3 larvae per group) were investigated at an interval of 6 h pi for 24 h, followed by 24 h interval till 96 h. An aliquot of the pooled haemolymph (100 µl) was transferred into 96-well microtiter plate for measuring the optical density (OD) at a wavelength of 450 nm using ELISA plate reader (Thermo Scientific Multiskan GO) with OD values of haemolymph collected from apparently healthy un-inoculated larvae as the background control.

## CC1(C)S[C@@H]2[C@H](NC(=O)[C@H](N)c3ccccc3)C(=O)N2[C@H]1C(=O)O [AMP, Ampicillin]
[1]
  Antibiotic Susceptibility testing: R
[1]; Escherichia coli
  MIC: > 240 µM
[2]
  Antibiotic Susceptibility testing: R
[2]; Escherichia coli
  MIC: > 240 µM
[3]
  Antibiotic Susceptibility testing: R
[3]; Escherichia coli
  MIC: > 240 µM

## O=C(O)c1cn(C2CC2)c2cc(N3CCNCC3)c(F)cc2c1=O [CIP, Ciprofloxacin]
[2]; Escherichia coli
  MIC: 120 µM (≈ 39.8 µg/mL)
[3]; Escherichia coli
  MIC: 60 µM (≈ 19.9 µg/mL)

## O=C(N[C@H](CO)[C@H](O)c1ccc([N+](=O)[O-])cc1)C(Cl)Cl [CL, Chloramphenicol]
[1]
  Antibiotic Susceptibility testing: S
  MIC Values, class symbol: S
[2]
  Antibiotic Susceptibility testing: S
  MIC Values, class symbol: S
[3]
  Antibiotic Susceptibility testing: S
  MIC Values, class symbol: S

## CO/N=C(\C(=O)N[C@@H]1C(=O)N2C(C(=O)O)=C(CSc3nc(=O)c(=O)[nH]n3C)CS[C@H]12)c1csc(N)n1 [CTR, Ceftriaxone]
[1]
  Antibiotic Susceptibility testing: S
  MIC Values, class symbol: S
[2]
  Antibiotic Susceptibility testing: R
[2]; Escherichia coli
  MIC: > 240 µM
[3]
  Antibiotic Susceptibility testing: R
[3]; Escherichia coli
  MIC: > 240 µM

## CNC(C)C1CCC(N)C(OC2C(N)CC(N)C(OC3OCC(C)(O)C(NC)C3O)C2O)O1 (centres unmarked) [GEN, Gentamicin]
[1]
  Antibiotic Susceptibility testing: S
  MIC Values, class symbol: S
[2]
  Antibiotic Susceptibility testing: S
  MIC Values, class symbol: S
[3]
  Antibiotic Susceptibility testing: S
  MIC Values, class symbol: S

## C[C@@H](O)[C@H]1C(=O)N2C(C(=O)O)=C(SCCN=CN)C[C@H]12 [IMI, Imipenem]
[1]
  Antibiotic Susceptibility testing: S
  MIC Values, class symbol: S
[2]
  Antibiotic Susceptibility testing: S
  MIC Values, class symbol: S
[3]
  Antibiotic Susceptibility testing: S
  MIC Values, class symbol: S

## C[C@@H](O)[C@H]1C(=O)N2C(C(=O)O)=C(S[C@@H]3CN[C@H](C(=O)N(C)C)C3)[C@H](C)[C@H]12 [Meropenem]
MDR-EAEC isolates
  time to similar inhibition (complete elimination) in time-kill kinetic assay: 60 min
MDR-EAEC strains
  survival rate: 85%
G. mellonella larvae
  melanization: the melanization was lower at 6 h pi, reached its peak at 18 h pi and thereafter gradually declined

## Cc1cc(NS(=O)(=O)c2ccc(N)cc2)no1 [SXT, Sulfamethoxazole]
[1]
  Antibiotic Susceptibility testing: R
[2]
  Antibiotic Susceptibility testing: S
[3]
  Antibiotic Susceptibility testing: R

## CN(C)[C@@H]1C(O)=C(C(N)=O)C(=O)[C@@]2(O)C(O)=C3C(=O)c4c(O)cccc4[C@@](C)(O)[C@H]3C[C@@H]12 [TE, Tetracycline]
[1]
  Antibiotic Susceptibility testing: R
[1]; Escherichia coli
  MIC: 60 µM (≈ 26.7 µg/mL)
[2]
  Antibiotic Susceptibility testing: R
[2]; Escherichia coli
  MIC: 2 µM (≈ 0.889 µg/mL)
[3]
  Antibiotic Susceptibility testing: R
[3]; Escherichia coli
  MIC: 30 µM (≈ 13.3 µg/mL)

## Co-trimoxazole [COT]
[1]
  Antibiotic Susceptibility testing: R
  MIC: >240 µM
[2]
  Antibiotic Susceptibility testing: R
  MIC: >240 µM
[3]
  Antibiotic Susceptibility testing: R
  MIC: >240 µM

## Colistin sulphate
[1]
  Antibiotic Susceptibility testing: S
  MIC Values, class symbol: S
[2]
  Antibiotic Susceptibility testing: S
  MIC Values, class symbol: S
[3]
  Antibiotic Susceptibility testing: S
  MIC Values, class symbol: S
